According to PMC10350924, “Design, Synthesis, and Pharmacological Characterization of a Potent Soluble Epoxide Hydrolase Inhibitor for the Treatment of Acute Pancreatitis” (Journal of Medicinal Chemistry, 2023):

Columns and labels:
Human recombinant sEH = target: T1, Human recombinant sEH (Homo sapiens, UniProt P34913); test: Cell-free sEH activity (PHOME fluorescence); format: biochemical; details: human isolated sEH
T1 construct: made in house; host or cells: Sf9 insect cells (recombinant baculovirus)
T1 sequence (P34913 1-555): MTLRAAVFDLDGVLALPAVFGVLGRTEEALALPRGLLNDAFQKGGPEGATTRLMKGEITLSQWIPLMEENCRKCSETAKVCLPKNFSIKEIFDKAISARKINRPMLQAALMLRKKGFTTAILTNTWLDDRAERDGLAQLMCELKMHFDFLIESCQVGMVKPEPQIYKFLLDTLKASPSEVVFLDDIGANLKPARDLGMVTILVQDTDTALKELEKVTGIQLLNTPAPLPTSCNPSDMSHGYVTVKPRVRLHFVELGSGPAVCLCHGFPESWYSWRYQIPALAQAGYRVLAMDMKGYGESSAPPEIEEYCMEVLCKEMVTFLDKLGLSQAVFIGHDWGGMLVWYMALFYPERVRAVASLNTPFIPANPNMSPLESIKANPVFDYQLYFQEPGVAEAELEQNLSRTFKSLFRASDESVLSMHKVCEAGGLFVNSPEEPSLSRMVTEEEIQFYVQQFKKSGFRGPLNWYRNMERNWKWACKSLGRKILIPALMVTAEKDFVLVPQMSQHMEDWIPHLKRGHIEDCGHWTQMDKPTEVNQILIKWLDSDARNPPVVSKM
Procedure: Human recombinant sEH was expressed in Sf9 insect cells and purified by affinity chromatography. […] Elution with 4-fluorochalcone oxide in PBS pH 7.4 with 1 mM dithiothreitol and 1 mM EDTA yielded sEH, which was dialyzed and concentrated. Purified sEH (60 ng) in 25 mM Tris HCl pH 7 with 0.1 mg/mL bovine serum albumin (BSA) was preincubated with the vehicle (DMSO) or test compounds for 1 min at room temperature. The sEH substrate PHOME (20 μM, Cayman Chemicals) was added to start the enzymatic reaction, which was stopped after 60 min in the dark by the addition of ZnSO4 (200 mM).

5-LOX [1] = target: T2, 5-LOX (Homo sapiens, UniProt P09917); test: 5-LOX product formation in human activated PMNL (A23187); format: cell-based; set-up: Freshly isolated PMNL (5 × 10^6) suspended in PBS pH 7.4 with 1 mg/mL glucose were preincubated with the test compounds; endogenous in cells; host or cells: human PMNL from donor blood; remaining activity: dose or concentration left out as unconfirmed; details: for remaining activity at 10 µM / IC50: human activated PMNL; for remaining activity at 10 µM: read-out: 5-LOX residual activity in PMNL (%) at 10 μM; for remaining activity: PMNL, read-out: 5-LO residual activity in PMNL (%)
T2 sequence (P09917 1-674): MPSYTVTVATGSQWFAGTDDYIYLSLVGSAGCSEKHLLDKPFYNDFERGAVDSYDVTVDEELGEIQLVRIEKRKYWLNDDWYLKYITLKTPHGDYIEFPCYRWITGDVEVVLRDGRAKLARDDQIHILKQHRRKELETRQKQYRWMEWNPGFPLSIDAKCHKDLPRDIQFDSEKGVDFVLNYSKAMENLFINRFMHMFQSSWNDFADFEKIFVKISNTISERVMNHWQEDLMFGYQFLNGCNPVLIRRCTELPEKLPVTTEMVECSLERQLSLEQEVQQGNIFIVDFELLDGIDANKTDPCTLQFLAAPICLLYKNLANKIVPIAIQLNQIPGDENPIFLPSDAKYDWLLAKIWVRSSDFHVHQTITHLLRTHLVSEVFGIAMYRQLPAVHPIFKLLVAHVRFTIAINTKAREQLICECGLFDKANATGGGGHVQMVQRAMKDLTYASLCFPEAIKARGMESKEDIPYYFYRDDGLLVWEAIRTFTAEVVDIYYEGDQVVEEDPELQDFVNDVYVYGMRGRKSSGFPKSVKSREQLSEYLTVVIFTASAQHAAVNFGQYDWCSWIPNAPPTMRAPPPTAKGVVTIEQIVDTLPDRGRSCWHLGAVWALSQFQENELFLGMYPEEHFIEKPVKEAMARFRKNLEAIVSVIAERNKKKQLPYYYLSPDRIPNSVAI
Procedure: Human PMNL were freshly isolated from leukocyte concentrates that were obtained from the Institute for Transfusion Medicine of the University Hospital Jena (Germany). […] These volunteers regularly donated blood (every 8–12 weeks) and were physically inspected by a clinician. […] Leukocytes were concentrated by centrifugation (4000g/20 min/20 °C) of freshly withdrawn blood. […] PMNL were obtained from the cell pellet. […] The reaction was stopped with an equal volume of methanol containing PGB1 (200 ng) as internal standard. Major 5-LOX products (all-trans isomers of LTB and 5-HETE, and additionally LTB4) were extracted and analyzed by RP-HPLC as described for the determination of cell-free 5-LOX activity.

5-LOX [2] = target: T2, 5-LOX; test: Cell-free 5-LOX activity assay; format: biochemical; set-up: made in house; host or cells: Escherichia coli Bl21 (DE3); details: for IC50: human isolated 5-LOX; for inhibition of 5-LOX activity, times lower than 6: isolated 5-LOX, relative to compound 6
Procedure: Human recombinant 5-LOX was expressed in Escherichia coli Bl21 (DE3) cells that were transformed with the plasmid pT3-5LO (wt 5-LOX) and purified on an adenosine triphosphate (ATP)-agarose column by affinity chromatography.[40],[41] In a first step, E. coli was lysed in 50 mM triethanolamine/HCl pH 8.0 with ethylenediamine tetraacetic acid (EDTA) (5 mM), soybean trypsin inhibitor (60 μg/mL), phenylmethanesulfonyl fluoride (1 mM), dithiothreitol (1 mM), and lysozyme (1 mg/mL) and sonicated 3 times for 15 s. The homogenate was centrifuged at 40,000g for 20 min at 4 °C. The supernatant was transferred to an ATP-agarose column (Sigma-Aldrich, Deisenhofen, Germany), which was sequentially washed with phosphate-buffered saline (PBS) pH 7.4, 1 mM EDTA, 50 mM phosphate buffer pH 7.4, 0.5 M NaCl, 1 mM EDTA, and finally 50 mM phosphate buffer pH 7.4 plus 1 mM EDTA. The enzyme was eluted with 50 mM phosphate buffer pH 7.4, 1 mM EDTA, and 20 mM ATP.
5-LOX product formation was started by the addition of 20 μM arachidonic acid (Sigma-Aldrich) and CaCl2 (2 mM) and stopped by the addition of an equal volume of ice-cold methanol containing PGB1 (200 ng) as internal standard after 10 min at 37 °C.

Row | Structure (SMILES) | IC50 (Human recombinant sEH) [nM] | remaining activity at 10 µM (5-LOX [1]) [%] | remaining activity (5-LOX [1]) [%] | IC50 (5-LOX [2]) [nM] | IC50 (5-LOX [1]) [nM] | inhibition of 5-LOX activity, times lower than 6 (5-LOX [2])
1 | O=C(Nc1ccc2c(c1)CCN2Cc1ccc(F)cc1)C12C[C@H]3C[C@@H](C1)C[C@@H](C2)C3 [Compound 3, (3R,5R,7R)-N-(1-(4-Fluorobenzyl)indolin-5-yl)adamantane-1-carboxamide] | 285 ± 31.2 | 53.2 ± 9.9 | 53.2 ± 9.9 | 74 ± 18 |  | 
2 | CC1(C)C2CC[C@@]1(CS(=O)(=O)Nc1ccc3c(c1)CCN3Cc1ccc(F)cc1)C(=O)C2 [Compound 4, 1-((1S)-7,7-Dimethyl-2-oxobicyclo[2.2.1]heptan-1-yl)-N-(1-(4-fluorobenzyl)indolin-5-yl)methanesulfonamide] | 1800 ± 460 | 2.5 ± 2.5 | 2.5 ± 2.5 | 171 ± 66 | 2560 | around 2.5 times
3 | O=C(NCC12C[C@H]3C[C@@H](C1)C[C@@H](C2)C3)Nc1ccc2c(c1)CCN2Cc1ccc(F)cc1 [Compound 5, 1-(((3R,5R,7R)-Adamantan-1-yl)methyl)-3-(1-(4-fluorobenzyl)indolin-5-yl)urea] | 11.1 ± 6 | 79.7 ± 2.8 | 73.7 ± 2.8 | 78 ± 53 |  | 
4 | O=C(NCc1cccc2ccccc12)Nc1ccc2c(c1)CCN2Cc1ccc(F)cc1 [Compound 7, 1-(1-(4-Fluorobenzyl)indolin-5-yl)-3-(naphthalen-1-ylmethyl)urea] | 36.1 ± 7.5 | 56.3 ± 5.1 | 56.3 ± 5.1 | 148 ± 28 |  | ~2 times
5 | CN1CCCN(CCNC(=O)Nc2ccc3c(c2)CCN3Cc2ccc(F)cc2)CC1 [Compound 8, 1-(1-(4-Fluorobenzyl)indolin-5-yl)-3-(2-(4-methyl-1,4-diazepan-1-yl)ethyl)urea] | > 10000 | 71.1 ± 6.6 | 71.1 ± 6.6 | > 1000 |  | 
6 | Fc1ccc(CN2CCc3cc(NC(=S)NCC45C[C@H]6C[C@@H](C4)C[C@@H](C5)C6)ccc32)cc1 [Compound 10, 1-(((3R,5R,7R)-Adamantan-1-yl)methyl)-3-(1-(4-fluorobenzyl)indolin-5-yl)thiourea] | 288 ± 220 |  |  | > 1000 |  | 
7 | O=C(NCC12C[C@H]3C[C@@H](C1)C[C@@H](C2)C3)Nc1ccc2c(c1)CCN2Cc1ccc(C(=O)O)cc1 [Compound 14, 4-((5-(3-(((3R,5R,7R)-Adamantan-1-yl)methyl)ureido)indolin-1-yl)methyl)benzoic Acid] | 24.1 ± 4.1 | 57.7 ± 9.6 | 57.7 ± 9.6 | > 1000 |  | 
8 | COC(=O)c1ccc(Cn2ccc3cc(NC(=O)NCC45C[C@H]6C[C@@H](C4)C[C@@H](C5)C6)ccc32)cc1 [Compound 29, Methyl 4-((5-(3-(((3R,5R,7R)-Adamantan-1-yl)methyl)ureido)-1H-indol-1-yl)methyl)benzoate] | 11.4 ± 3.6 | 65.1 ± 9.4 | 65.1 ± 9.4 | > 1000 |  | 
9 | COC(=O)CCCn1ccc2cc(NC(=O)NCC34C[C@H]5C[C@@H](C3)C[C@@H](C4)C5)ccc21 [Compound 32, Methyl 4-(5-(3-(((3R,5R,7R)-Adamantan-1-yl)methyl)ureido)-1H-indol-1-yl)butanoate] | 21.3 ± 11.9 | 30.1 ± 4.8 | 30.1 ± 4.8 | > 1000 | 6830 ± 840 | 
10 | O=C(Nc1ccc2c(ccn2Cc2ccc(F)cc2)c1)NC12C[C@H]3C[C@@H](C1)C[C@@H](C2)C3 [Compound 33, 1-((3S,5S,7S)-Adamantan-1-yl)-3-(1-(4-fluorobenzyl)-1H-indol-5-yl)urea] | 13.4 ± 3.1 |  | 97.8 ± 0.3 | > 1000 |  | 
11 | O=C(NCC12C[C@H]3C[C@@H](C1)C[C@@H](C2)C3)Nc1ccc2c(ccn2Cc2ccc(C(=O)O)cc2)c1 [Compound 37, 4-((5-(3-(((3R,5R,7R)-Adamantan-1-yl)methyl)ureido)-1H-indol-1-yl)methyl)benzoic Acid] | 15.1 ± 7.7 | 2.1 ± 1.1 | 2.1 ± 1.1 | > 1000 | 4400 ± 420 | 
12 | O=C(O)CCCn1ccc2cc(NC(=O)NCC34C[C@H]5C[C@@H](C3)C[C@@H](C4)C5)ccc21 [Compound 38, 4-(5-(3-(((3R,5R,7R)-Adamantan-1-yl)methyl)ureido)-1H-indol-1-yl)butanoic Acid] | 53.3 ± 15.9 | 41.2 ± 7.8 | 41.2 ± 7.8 | > 1000 | 8150 ± 1860 | 
13 | NCCCn1ccc2cc(NC(=O)NCC34CC5CC(CC(C5)C3)C4)ccc21 [Compound 39, 1-(((3R,5R,7R)-Adamantan-1-yl)methyl)-3-(1-(3-aminopropyl)-1H-indol-5-yl)urea] | 27.2 ± 11.8 | 51.8 ± 13 | 51.8 ± 13 | > 1000 |  | 
14 | NCc1ccc(Cn2ccc3cc(NC(=O)NCC45C[C@H]6C[C@@H](C4)C[C@@H](C5)C6)ccc32)cc1 [Compound 42, 1-(((3R,5R,7R)-Adamantan-1-yl)methyl)-3-(1-(4-(aminomethyl)benzyl)-1H-indol-5-yl)urea] | 14.9 ± 4.6 | 6.6 ± 4 | 6.6 ± 4 | > 1000 | 6190 ± 2410 | 
15 | O=C(NCC12C[C@H]3C[C@@H](C1)C[C@@H](C2)C3)Nc1ccc2c(ccn2-c2ccc(F)cc2)c1 [Compound 45, 1-(((3R,5R,7R)-Adamantan-1-yl)methyl)-3-(1-(4-fluorophenyl)-1H-indol-5-yl)urea] | 4.4 ± 0.5 | 80.9 ± 1.7 | 80.9 ± 1.7 | > 1000 |  | 
16 | O=C(NCC12C[C@H]3C[C@@H](C1)C[C@@H](C2)C3)Nc1ccc2c(c1)c1ccccc1n2Cc1ccc(F)cc1 [Compound 48, 1-(((3R,5R,7R)-Adamantan-1-yl)methyl)-3-(9-(4-fluorobenzyl)-9H-carbazol-3-yl)urea] | 20 ± 3.8 | 92.6 ± 4 | 92.6 ± 4 | > 1000 |  | 
